In ChEMBL document CHEMBL3885881, “DrugMatrix”:
Positions of bridges follow the written chain, without caps; N, C: chain ends. Non-standard residues stand in square brackets, D forms with d. Residues, ends and D or L forms follow the SMILES beside them. *: point of attachment. Ileψ(thiazoline)Cys = CC[C@H](C)[C@H](N)C1=N[C@H](C(=O)*)CS1; dOrn = NCCC[C@@H](N)C(=O)O

Organism: Rattus norvegicus
Assay: DrugMatrix - Regimen: Daily Repeat
Assay type: toxicity, organism-based, Sprague-Dawley
Set-up: regimen Daily Repeat, gender Male, age 6-8 weeks
Details: in vivo, sc, route subcutaneous, […]; for ABSOLUTE BASOPHIL / ABSOLUTE EOSINOPHIL / ABSOLUTE LYMPHOCYTE / ABSOLUTE MONOCYTE / ABSOLUTE SEGMENTED NEUTROPHIL / BASOPHIL / EOSINOPHIL / ERYTHROCYTE COUNT / HEMATOCRIT / HEMOGLOBIN / LEUKOCYTE COUNT / LYMPHOCYTE / MEAN CORPUSCULAR HEMOGLOBIN / MEAN CORPUSCULAR HEMOGLOBIN CONCENTRATION / MEAN CORPUSCULAR VOLUME / MONOCYTE / NEUTROPHIL / NUCLEATED RED BLOOD CELLS / PLATELET COUNT: tissue Blood; for ALANINE AMINOTRANSFERASE / ALBUMIN / ALKALINE PHOSPHATASE / ASPARTATE AMINOTRANSFERASE / BLOOD UREA NITROGEN / CARBON DIOXIDE / CHLORIDE / CHOLESTEROL / CREATINE PHOSPHOKINASE / CREATININE / GLUCOSE / LACTATE DEHYDROGENASE / LIPASE / PHOSPHORUS / POTASSIUM / SODIUM / TOTAL BILIRUBIN / TOTAL PROTEIN / URIC ACID: tissue Plasma
[1] = 380 mg/kg, 72 h, dose level High, time 3 day
[2] = 380 mg/kg, 120 h, dose level High, time 5 day
[3] = 72 h, dose 7.6 mg/Kg, dose level Low, time 3 day
[4] = 120 h, dose 7.6 mg/Kg, dose level Low, time 5 day

Q: Which results are given for `CC[C@H](C)[C@H](N)C1=N[C@H](C(=O)N[C@@H](CC(C)C)C(=O)N[C@H](CCC(=O)O)C(=O)N[C@H](C(=O)N[C@H]2CCCCNC(=O)[C@H](CC(N)=O)NC(=O)[C@@H](CC(=O)O)NC(=O)[C@H](Cc3cnc[nH]3)NC(=O)[C@@H](Cc3ccccc3)NC(=O)[C@H]([C@@H](C)CC)NC(=O)[C@@H](CCCN)NC2=O)[C@@H](C)CC)CS1` [BACITRACIN] ({Ileψ(thiazoline)Cys}-L[dE]IK[dOrn]I[dF]H[dD]N; lactam 4-C)?
A: ABSOLUTE BASOPHIL [1]: 0 CELLS/uL; ABSOLUTE EOSINOPHIL [1]: 42 CELLS/uL; ABSOLUTE LYMPHOCYTE [1]: 8742.33 CELLS/uL; ABSOLUTE MONOCYTE [1]: 132.67 CELLS/uL; ABSOLUTE SEGMENTED NEUTROPHIL [1]: 3249.67 CELLS/uL; BASOPHIL [1]: 0%; EOSINOPHIL [1]: 0.33%; ERYTHROCYTE COUNT [1]: 4.93 x10E6/uL; HEMATOCRIT [1]: 31.17%; HEMOGLOBIN [1]: 12.4 G/DL; LEUKOCYTE COUNT [1]: 12.17 x10E3/uL; LYMPHOCYTE [1]: 71.67%; MEAN CORPUSCULAR HEMOGLOBIN [1]: 25.1 pg; MEAN CORPUSCULAR HEMOGLOBIN CONCENTRATION [1]: 39.8 G/DL; MEAN CORPUSCULAR VOLUME [1]: 63.1 fL; MONOCYTE [1]: 1%; NEUTROPHIL [1]: 27%; NUCLEATED RED BLOOD CELLS [1]: 0.67 /100WBC; PLATELET COUNT [1]: 1256.33 x10E3/uL; ALANINE AMINOTRANSFERASE [1]: 168 u/L; ALBUMIN [1]: 3.13 G/DL; ALKALINE PHOSPHATASE [1]: 252 u/L; ASPARTATE AMINOTRANSFERASE [1]: 595.67 u/L; BLOOD UREA NITROGEN [1]: 127.67 mg/dL; CARBON DIOXIDE [1]: 23.33 mmol/L; CHLORIDE [1]: 90.67 MEQ/L; CHOLESTEROL [1]: 114.33 mg/dL; CREATINE PHOSPHOKINASE [1]: 288.33 u/L; CREATININE [1]: 4.29 mg/dL; GLUCOSE [1]: 146.67 mg/dL; LACTATE DEHYDROGENASE [1]: 577.67 u/L; LIPASE [1]: 8.67 u/L; PHOSPHORUS [1]: 15.2 mg/dL; POTASSIUM [1]: 7.31 MEQ/L; SODIUM [1]: 136.43 MEQ/L; TOTAL BILIRUBIN [1]: 0.37 mg/dL; TOTAL PROTEIN [1]: 5.8 G/DL; URIC ACID [1]: 1.37 mg/dL; ABSOLUTE BASOPHIL [2]: 0 CELLS/uL; ABSOLUTE EOSINOPHIL [2]: 0 CELLS/uL; ABSOLUTE LYMPHOCYTE [2]: 16005 CELLS/uL; ABSOLUTE MONOCYTE [2]: 832 CELLS/uL; ABSOLUTE SEGMENTED NEUTROPHIL [2]: 5863 CELLS/uL; BASOPHIL [2]: 0%; EOSINOPHIL [2]: 0%; ERYTHROCYTE COUNT [2]: 5.69 x10E6/uL; HEMATOCRIT [2]: 34%; HEMOGLOBIN [2]: 13.77 G/DL; LEUKOCYTE COUNT [2]: 22.7 x10E3/uL; LYMPHOCYTE [2]: 70.67%; MEAN CORPUSCULAR HEMOGLOBIN [2]: 24.2 pg; MEAN CORPUSCULAR HEMOGLOBIN CONCENTRATION [2]: 40.47 G/DL; MEAN CORPUSCULAR VOLUME [2]: 59.77 fL; MONOCYTE [2]: 3.67%; NEUTROPHIL [2]: 25.67%; NUCLEATED RED BLOOD CELLS [2]: 0.33 /100WBC; PLATELET COUNT [2]: 1853.67 x10E3/uL; ALANINE AMINOTRANSFERASE [2]: 104 u/L; ALBUMIN [2]: 3.33 G/DL; ALKALINE PHOSPHATASE [2]: 228.33 u/L; ASPARTATE AMINOTRANSFERASE [2]: 305.67 u/L; BLOOD UREA NITROGEN [2]: 48 mg/dL; CARBON DIOXIDE [2]: 25.33 mmol/L; CHLORIDE [2]: 96.33 MEQ/L; CHOLESTEROL [2]: 99.67 mg/dL; CREATINE PHOSPHOKINASE [2]: 335 u/L; CREATININE [2]: 0.95 mg/dL; GLUCOSE [2]: 137.67 mg/dL; LACTATE DEHYDROGENASE [2]: 484.67 u/L; LIPASE [2]: 9 u/L; PHOSPHORUS [2]: 11.2 mg/dL; POTASSIUM [2]: 6.3 MEQ/L; SODIUM [2]: 133.53 MEQ/L; TOTAL BILIRUBIN [2]: 0.17 mg/dL; TOTAL PROTEIN [2]: 6.1 G/DL; URIC ACID [2]: 2.73 mg/dL; ABSOLUTE BASOPHIL [3]: 0 CELLS/uL; ABSOLUTE EOSINOPHIL [3]: 0 CELLS/uL; ABSOLUTE LYMPHOCYTE [3]: 8685.33 CELLS/uL; ABSOLUTE MONOCYTE [3]: 135 CELLS/uL; ABSOLUTE SEGMENTED NEUTROPHIL [3]: 1146.33 CELLS/uL; BASOPHIL [3]: 0%; EOSINOPHIL [3]: 0%; ERYTHROCYTE COUNT [3]: 6.24 x10E6/uL; HEMATOCRIT [3]: 39.37%; HEMOGLOBIN [3]: 15.53 G/DL; LEUKOCYTE COUNT [3]: 9.97 x10E3/uL; LYMPHOCYTE [3]: 87.33%; MEAN CORPUSCULAR HEMOGLOBIN [3]: 24.9 pg; MEAN CORPUSCULAR HEMOGLOBIN CONCENTRATION [3]: 39.47 G/DL; MEAN CORPUSCULAR VOLUME [3]: 63.13 fL; MONOCYTE [3]: 1.33%; NEUTROPHIL [3]: 11.33%; NUCLEATED RED BLOOD CELLS [3]: 0 /100WBC; PLATELET COUNT [3]: 1341.67 x10E3/uL; ALANINE AMINOTRANSFERASE [3]: 22.67 u/L; ALBUMIN [3]: 4.77 G/DL; ALKALINE PHOSPHATASE [3]: 372.67 u/L; ASPARTATE AMINOTRANSFERASE [3]: 95 u/L; BLOOD UREA NITROGEN [3]: 17.33 mg/dL; CARBON DIOXIDE [3]: 22 mmol/L; CHLORIDE [3]: 105.67 MEQ/L; CHOLESTEROL [3]: 79.33 mg/dL; CREATINE PHOSPHOKINASE [3]: 677 u/L; CREATININE [3]: 0.21 mg/dL; GLUCOSE [3]: 182 mg/dL; LACTATE DEHYDROGENASE [3]: 728.67 u/L; LIPASE [3]: 9 u/L; PHOSPHORUS [3]: 14.07 mg/dL; POTASSIUM [3]: 6.5 MEQ/L; SODIUM [3]: 151.33 MEQ/L; TOTAL BILIRUBIN [3]: 0.2 mg/dL; TOTAL PROTEIN [3]: 6.97 G/DL; URIC ACID [3]: 2.53 mg/dL; ABSOLUTE BASOPHIL [4]: 0 CELLS/uL; ABSOLUTE EOSINOPHIL [4]: 40 CELLS/uL; ABSOLUTE LYMPHOCYTE [4]: 10682 CELLS/uL; ABSOLUTE MONOCYTE [4]: 80 CELLS/uL; ABSOLUTE SEGMENTED NEUTROPHIL [4]: 864.67 CELLS/uL; BASOPHIL [4]: 0%; EOSINOPHIL [4]: 0.33%; ERYTHROCYTE COUNT [4]: 4.88 x10E6/uL; HEMATOCRIT [4]: 31.97%; HEMOGLOBIN [4]: 12.4 G/DL; LEUKOCYTE COUNT [4]: 11.67 x10E3/uL; LYMPHOCYTE [4]: 90.67%; MEAN CORPUSCULAR HEMOGLOBIN [4]: 25.37 pg; MEAN CORPUSCULAR HEMOGLOBIN CONCENTRATION [4]: 38.97 G/DL; MEAN CORPUSCULAR VOLUME [4]: 65.07 fL; MONOCYTE [4]: 0.67%; NEUTROPHIL [4]: 8.33%; NUCLEATED RED BLOOD CELLS [4]: 0.67 /100WBC; PLATELET COUNT [4]: 938.67 x10E3/uL; ALANINE AMINOTRANSFERASE [4]: 50 u/L; ALBUMIN [4]: 4.2 G/DL; ALKALINE PHOSPHATASE [4]: 312.33 u/L; ASPARTATE AMINOTRANSFERASE [4]: 77 u/L; BLOOD UREA NITROGEN [4]: 17.33 mg/dL; CARBON DIOXIDE [4]: 27 mmol/L; CHLORIDE [4]: 103.67 MEQ/L; CHOLESTEROL [4]: 66 mg/dL; CREATINE PHOSPHOKINASE [4]: 146.67 u/L; CREATININE [4]: 0.2 mg/dL; GLUCOSE [4]: 146.33 mg/dL; LACTATE DEHYDROGENASE [4]: 121 u/L; LIPASE [4]: 8.67 u/L; PHOSPHORUS [4]: 12.63 mg/dL; POTASSIUM [4]: 6.86 MEQ/L; SODIUM [4]: 148.7 MEQ/L; TOTAL BILIRUBIN [4]: 0.2 mg/dL; TOTAL PROTEIN [4]: 6 G/DL; URIC ACID [4]: 1.4 mg/dL
